{
  "source": "patent US20100143322A1",
  "about": "“USE OF INHIBITORS OF N-METHYL TRANSFERASES FOR THE THERAPY OF PARKINSON'S DISEASE” (priority 2005, published 2010)",
  "origin": "cited, not measured here",
  "target": "T1, phenylethanolamine N-methyl transferase (PNMT) (Homo sapiens, UniProt P11086)",
  "T1 sequence (P11086 1-282)": "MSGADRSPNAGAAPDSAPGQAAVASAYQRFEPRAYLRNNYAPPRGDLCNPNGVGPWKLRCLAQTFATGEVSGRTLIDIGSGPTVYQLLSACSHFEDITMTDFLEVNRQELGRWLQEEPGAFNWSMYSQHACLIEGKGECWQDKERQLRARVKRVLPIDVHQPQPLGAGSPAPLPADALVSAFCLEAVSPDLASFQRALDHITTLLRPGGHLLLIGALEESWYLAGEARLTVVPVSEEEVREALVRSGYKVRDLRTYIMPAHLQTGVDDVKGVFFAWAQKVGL",
  "details": "less than 2 mg of Ala-Cys-Cys, isolated from rabbit liver and purified",
  "data": [
    {"substance": "Ala-Cys-Cys", "values": [
      {"measurement": "inhibition of the PNMT in the PNMT test", "value": "> 90", "unit": "%"}
    ]}
  ]
}
